How the values were obtained:
[1] = target: T1, IKZF1 (Homo sapiens, UniProt Q13422); assay: Cellular degradation assay, eGFP-IKZF1Δ fusion with mCherry reporter in Flp-In 293 cells; type: cell-based; conditions: for IKZF1 GFP/RFP Relative Abundance: 5 h incubation, n=1; for potency of IKZF1 degradation, in words: Table 3 summary; for DC50: half degradation at 5 h (DC50,5 h), triplicate, 11 point dose response
T1 construct: expressed in transfected cells; host or cells: Flp-In 293
Protocol: (§1) IKZF1Δ, IKZF2Δ, GSPT1 and SALL4 ZnF1-2 were subcloned into mammalian pcDNA5/FRT Vector (Ampicillin and Hygromycin B resistant) modified to contain MCS-eGFP-P2A-mCherry. […] Following 2-3 passage cycle, FACS (FACSAria™ II, BD) was used to enrich for cells expressing eGFP and mCherry. Cells stably expressing the IKZF1Δ, IKZF2Δ, GSPT1 or SALL4 Znf1-2 GFP fusions with mCherry reporter were seeded at 30-50% confluency in 384-well plates with 50 μL FluoroBrite™ DMEM media (Thermo Fisher Scientific, A18967) containing 10% FBS per well a day before compound treatment. Compound titrations were dispensed using a D300e Digital Dispenser (HP), normalized to 0.5% DMSO, and incubated with cells for 5 hours.
(§2) The resulting images were analyzed using CellProfiler™. A series of image analysis steps (‘image analysis pipeline’) was constructed. First, the red and green channels were aligned and cropped to target the middle of each well (to avoid analysis of heavily clumped cells at the edges), and a background illumination function was calculated for both red and green channels of each well individually and subtracted to correct for illumination variations across the 384-well plate from various sources of error. An additional step was then applied to the green channel to suppress the analysis of large auto fluorescent artifacts and enhance the analysis of cell specific fluorescence by way of selecting for objects under a given size, 30 A.U., and with a given shape, speckles. mCherry-positive cells were then identified in the red channel filtering for objects between 8-60 pixels in diameter and using intensity to distinguish between clumped objects. The green channel was then segmented into GFP positive and negative areas and objects were labeled as GFP positive if at least 40% of it overlapped with a GFP positive area. The fraction of GFP-positive cells/mCherry-positive cells in each well was then calculated, and the green and red images were rescaled for visualization.
(§3) The degradation assay was performed as described above. […] Degradation was measured after 5 h of compound treatment and the concentrations that lead to half degradation at 5 h (DC50,5 h) were calculated using the nonlinear fit variable slope model (GraphPad Software).

[2] = target: T2, CRBN and Helios (IKZF2) (Homo sapiens, UniProt Q96SW2+Q9UKS7); assay: TR-FRET dimerization assay (CRBN-IKZF2 ternary complex formation); type: binding; conditions: n=1
T2 construct: His (N); Strep (N)
Protocol: A focused library of imide analogs was synthesized and assessed for their ability to induce dimerization between CRBN and Helios in a time-resolved fluorescence energy transfer (TR-FRET) assay (FIG. 1A).
Prior to TR-FRET measurements being conducted, the reactions were incubated for 15 min at rt. […] The TR-FRET signal of each data point was extracted by calculating the 520/490 nm ratios. Data from single measurements (n=1), each calculated as an average of at least three technical replicates per well per experiment are presented in Table 1.
BODIPY-labeled CRBN in complex with Damage Specific DNA Binding Protein 1 (DDB1) harboring an internal deletion of the flexible BPB propeller (DDB1AB-CRBN) and in vitro biotinylated IKZF2 were treated with increasing concentrations of the indicated compounds in the presence of tracer amounts of Terbium-Streptavidin (Tb-SA). Compound-induced recruitment of IKZF2 to CRBN was quantified following the 520/490 TR-FRET ratio using a PHERAstar® plate reader (BMG) utilizing two synchronized PMTs to reduce background.

[3] = target: GSPT1 (Homo sapiens, UniProt P15170+Q96SW2); assay: Cellular degradation assay, eGFP-GSPT1 fusion with mCherry reporter in Flp-In 293 cells; type: cell-based; set-up: expressed in transfected cells; host or cells: Flp-In 293; conditions: for GSPT1 GFP/RFP Relative Abundance: 5 h incubation, n=1; for DC50: half degradation at 5 h (DC50,5 h), triplicate, 11 point dose response
Protocol: as §1, §2, §3

[4] = test system: IKZF2; assay: Cellular degradation assay, eGFP-IKZF2Δ fusion with mCherry reporter in Flp-In 293 cells; type: cell-based; conditions: for IKZF2 GFP/RFP Relative Abundance: 5 h incubation, n=1; for DC50: half degradation at 5 h (DC50,5 h), triplicate, 11 point dose response
Protocol: as §1, §2, §3

[5] = compound concentration 2.00E−05
[6] = compound concentration 2.00E−06
[7] = compound concentration 2.00E−07
[8] = compound concentration 6.6667E−05
[9] = compound concentration 6.6667E−06
[10] = compound concentration 6.6667E−07 (667 nM)

Sequence of GSPT1 (P15170 whole entry, the tested form may be a part): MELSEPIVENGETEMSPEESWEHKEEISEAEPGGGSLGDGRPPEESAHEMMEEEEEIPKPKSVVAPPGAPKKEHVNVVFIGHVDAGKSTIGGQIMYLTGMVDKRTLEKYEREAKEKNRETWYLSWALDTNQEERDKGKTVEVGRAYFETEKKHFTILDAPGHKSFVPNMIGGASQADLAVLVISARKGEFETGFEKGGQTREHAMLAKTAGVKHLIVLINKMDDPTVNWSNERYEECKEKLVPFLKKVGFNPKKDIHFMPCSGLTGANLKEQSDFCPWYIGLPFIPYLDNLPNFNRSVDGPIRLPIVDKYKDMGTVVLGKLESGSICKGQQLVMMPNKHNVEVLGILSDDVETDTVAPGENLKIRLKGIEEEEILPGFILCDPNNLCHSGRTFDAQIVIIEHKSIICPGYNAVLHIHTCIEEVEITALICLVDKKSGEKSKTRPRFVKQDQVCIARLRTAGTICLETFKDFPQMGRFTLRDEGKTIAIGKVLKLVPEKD
Sequence of GSPT1 (Q96SW2 whole entry, the tested form may be a part): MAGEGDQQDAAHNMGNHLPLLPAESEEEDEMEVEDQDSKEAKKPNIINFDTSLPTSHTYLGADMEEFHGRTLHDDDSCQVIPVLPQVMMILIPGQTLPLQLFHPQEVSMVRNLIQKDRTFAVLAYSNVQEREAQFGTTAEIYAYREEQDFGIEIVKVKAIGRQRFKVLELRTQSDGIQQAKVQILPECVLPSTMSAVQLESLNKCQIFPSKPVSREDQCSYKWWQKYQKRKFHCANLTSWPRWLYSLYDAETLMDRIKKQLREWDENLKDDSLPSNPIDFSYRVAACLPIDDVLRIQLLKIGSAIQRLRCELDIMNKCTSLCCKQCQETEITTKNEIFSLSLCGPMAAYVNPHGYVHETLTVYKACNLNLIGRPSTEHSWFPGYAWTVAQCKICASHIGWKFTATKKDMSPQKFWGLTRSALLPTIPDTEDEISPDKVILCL
Sequence of GSPT1 (Q16531 whole entry partner, the tested form may be a part): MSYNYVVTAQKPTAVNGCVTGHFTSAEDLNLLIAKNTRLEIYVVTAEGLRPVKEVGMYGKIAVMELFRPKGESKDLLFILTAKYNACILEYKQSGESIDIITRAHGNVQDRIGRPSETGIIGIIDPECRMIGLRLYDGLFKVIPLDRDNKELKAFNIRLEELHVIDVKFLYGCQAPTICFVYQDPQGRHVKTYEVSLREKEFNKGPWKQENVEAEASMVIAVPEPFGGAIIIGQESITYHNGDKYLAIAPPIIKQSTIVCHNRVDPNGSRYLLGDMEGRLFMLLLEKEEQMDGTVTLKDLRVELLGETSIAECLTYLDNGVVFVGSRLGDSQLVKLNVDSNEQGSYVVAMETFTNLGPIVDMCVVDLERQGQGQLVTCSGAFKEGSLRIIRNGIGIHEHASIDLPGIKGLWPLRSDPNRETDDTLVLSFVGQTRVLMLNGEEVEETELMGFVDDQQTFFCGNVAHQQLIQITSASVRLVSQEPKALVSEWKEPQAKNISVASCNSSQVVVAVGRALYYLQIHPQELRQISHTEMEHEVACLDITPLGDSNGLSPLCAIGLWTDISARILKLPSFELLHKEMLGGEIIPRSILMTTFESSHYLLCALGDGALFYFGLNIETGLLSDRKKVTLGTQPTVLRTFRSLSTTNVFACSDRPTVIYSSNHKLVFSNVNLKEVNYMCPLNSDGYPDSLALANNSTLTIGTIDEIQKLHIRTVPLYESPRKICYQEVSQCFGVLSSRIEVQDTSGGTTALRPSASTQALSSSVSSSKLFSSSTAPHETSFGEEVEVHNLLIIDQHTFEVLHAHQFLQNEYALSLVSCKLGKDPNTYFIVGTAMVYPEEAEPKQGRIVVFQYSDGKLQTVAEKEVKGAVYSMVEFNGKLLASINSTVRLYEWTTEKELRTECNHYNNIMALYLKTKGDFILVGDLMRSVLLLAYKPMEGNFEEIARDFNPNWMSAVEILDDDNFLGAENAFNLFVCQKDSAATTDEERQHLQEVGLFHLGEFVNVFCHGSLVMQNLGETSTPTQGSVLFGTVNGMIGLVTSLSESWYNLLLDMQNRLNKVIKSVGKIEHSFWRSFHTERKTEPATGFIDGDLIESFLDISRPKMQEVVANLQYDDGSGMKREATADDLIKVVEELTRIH
T2 sequence (Q96SW2 whole entry): as the sequence (Q96SW2 whole entry, the tested form may be a part) above
T2 sequence (Q9UKS7 whole entry): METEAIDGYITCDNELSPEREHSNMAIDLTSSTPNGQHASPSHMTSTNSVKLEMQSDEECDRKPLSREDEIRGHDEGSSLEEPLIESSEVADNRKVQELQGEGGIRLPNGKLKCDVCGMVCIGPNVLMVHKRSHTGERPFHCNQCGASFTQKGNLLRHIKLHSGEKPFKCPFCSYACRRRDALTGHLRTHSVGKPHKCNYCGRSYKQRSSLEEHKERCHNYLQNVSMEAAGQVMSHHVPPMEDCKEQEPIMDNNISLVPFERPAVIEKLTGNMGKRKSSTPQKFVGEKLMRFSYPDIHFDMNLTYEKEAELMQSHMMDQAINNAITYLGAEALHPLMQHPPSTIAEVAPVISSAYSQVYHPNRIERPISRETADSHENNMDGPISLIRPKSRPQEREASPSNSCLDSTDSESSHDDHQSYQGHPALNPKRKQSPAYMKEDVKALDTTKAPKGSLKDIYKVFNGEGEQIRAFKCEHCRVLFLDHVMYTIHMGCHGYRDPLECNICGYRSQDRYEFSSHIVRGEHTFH
T1 sequence (Q13422 83-213 isoform Q13422-7 limits assumed): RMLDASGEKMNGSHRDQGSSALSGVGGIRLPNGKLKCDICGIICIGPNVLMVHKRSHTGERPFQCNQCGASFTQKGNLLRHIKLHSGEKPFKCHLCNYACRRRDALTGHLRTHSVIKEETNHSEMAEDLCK
T1 sequence (Q96SW2 whole entry partner, the tested form may be a part): as the sequence (Q96SW2 whole entry, the tested form may be a part) above
T1 sequence (Q16531 2-1140 partner limits assumed): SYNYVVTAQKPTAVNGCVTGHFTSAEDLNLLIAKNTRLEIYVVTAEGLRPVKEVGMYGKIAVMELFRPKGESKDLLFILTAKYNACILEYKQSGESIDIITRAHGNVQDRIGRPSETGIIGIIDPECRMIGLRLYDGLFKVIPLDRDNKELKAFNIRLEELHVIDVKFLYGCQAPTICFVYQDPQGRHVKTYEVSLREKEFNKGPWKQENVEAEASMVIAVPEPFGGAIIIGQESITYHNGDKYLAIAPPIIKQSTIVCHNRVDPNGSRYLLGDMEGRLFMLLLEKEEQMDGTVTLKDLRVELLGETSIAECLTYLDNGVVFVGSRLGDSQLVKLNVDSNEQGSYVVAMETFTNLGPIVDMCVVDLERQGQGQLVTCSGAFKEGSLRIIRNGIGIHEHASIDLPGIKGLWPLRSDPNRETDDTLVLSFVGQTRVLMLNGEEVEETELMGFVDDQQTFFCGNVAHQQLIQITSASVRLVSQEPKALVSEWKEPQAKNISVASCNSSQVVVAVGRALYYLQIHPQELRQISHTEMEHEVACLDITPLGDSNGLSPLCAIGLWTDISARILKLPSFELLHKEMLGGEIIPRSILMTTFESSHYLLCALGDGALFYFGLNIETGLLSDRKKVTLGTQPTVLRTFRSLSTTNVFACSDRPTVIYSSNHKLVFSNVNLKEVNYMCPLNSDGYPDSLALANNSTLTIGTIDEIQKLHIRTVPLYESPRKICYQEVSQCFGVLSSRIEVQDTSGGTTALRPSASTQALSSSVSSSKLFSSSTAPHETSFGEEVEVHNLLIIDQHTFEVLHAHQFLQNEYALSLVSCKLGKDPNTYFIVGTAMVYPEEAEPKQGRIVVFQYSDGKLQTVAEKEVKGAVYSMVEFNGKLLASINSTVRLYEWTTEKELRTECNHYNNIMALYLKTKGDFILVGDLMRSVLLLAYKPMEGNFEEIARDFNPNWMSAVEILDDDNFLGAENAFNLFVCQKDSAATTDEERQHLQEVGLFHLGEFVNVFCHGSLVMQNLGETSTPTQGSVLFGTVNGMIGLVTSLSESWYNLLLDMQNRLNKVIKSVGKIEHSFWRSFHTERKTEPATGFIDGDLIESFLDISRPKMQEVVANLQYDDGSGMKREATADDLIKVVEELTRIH

Structure (SMILES) | IKZF1 GFP/RFP Relative Abundance [1, 5] | IKZF1 GFP/RFP Relative Abundance [1, 6] | IKZF1 GFP/RFP Relative Abundance [1, 7] | TR-FRET-IKZF2 (Normalized to CC-885) [2, 8] | TR-FRET-IKZF2 (Normalized to CC-885) [2, 9] | TR-FRET-IKZF2 (Normalized to CC-885) [2, 10] | GSPT1 GFP/RFP Relative Abundance [3, 5] | GSPT1 GFP/RFP Relative Abundance [3, 6] | GSPT1 GFP/RFP Relative Abundance [3, 7] | IKZF2 GFP/RFP Relative Abundance [4, 5] | IKZF2 GFP/RFP Relative Abundance [4, 6] | IKZF2 GFP/RFP Relative Abundance [4, 7] | potency of IKZF1 degradation, in words [1] | DC50 [1] | DC50 [3] | DC50 [4]
Cc1ccc(CC(=O)NCc2cccc(NC3=CC(=O)N(C4CCC(=O)NC4=O)C3=O)c2)cc1C (centres unmarked) [Compound 60, 2-(3,4-dimethylphenyl)-N-(3-((1-(2,6-dioxopiperidin-3-yl)-2,5-dioxo-2,5-dihydro-1H-pyrrol-3-yl)amino)benzyl)acetamide] | 0.132 | 0.078 | 0.091 | 1.082 | 0.945 | 0.833 | 0.387 | 0.558 | 0.528 | 0.087 | 0.151 | 0.185 | – | – | – | –
Cc1ccc(NC(=O)Cc2cccc(NC3=CC(=O)N(C4CCC(=O)NC4=O)C3=O)c2)cc1Cl (centres unmarked) [Compound 50, N-(3-chloro-4-methylphenyl)-2-(3-((1-(2,6-dioxopiperidin-3-yl)-2,5-dioxo-2,5-dihydro-1H-pyrrol-3-yl)amino)phenyl)acetamide] | 0.073 | 0.068 | 0.093 | 1.011 | 0.889 | 0.848 | 0.645 | 0.702 | 0.643 | 0.188 | 0.195 | 0.267 | – | – | – | –
O=C1CCC(N2C(=O)C=C(Nc3cccc(CNC(=O)Nc4ccc(Cl)c(Cl)c4)c3)C2=O)C(=O)N1 (centres unmarked) [Compound 59, 1-(3,4-dichlorophenyl)-3-(3-((1-(2,6-dioxopiperidin-3-yl)-2,5-dioxo-2,5-dihydro-1H-pyrrol-3-yl)amino)benzyl)urea] | 0.144 | 0.097 | 0.066 | 1.224 | 1.165 | 1.035 | 0.247 | 0.734 | 0.952 | 0.099 | 0.072 | 0.108 | – | – | – | –
O=C(Cc1ccc(Cl)c(Cl)c1)NCc1cccc(NC2=CC(=O)N(C3CCC(=O)NC3=O)C2=O)c1 (centres unmarked) [Compound 61, 2-(3,4-dichlorophenyl)-N-(3-((1-(2,6-dioxopiperidin-3-yl)-2,5-dioxo-2,5-dihydro-1H-pyrrol-3-yl)amino)benzyl)acetamide] | 0.111 | 0.104 | 0.103 | 1.465 | 1.248 | 1.201 | 0.190 | 0.466 | 0.737 | 0.044 | 0.045 | 0.050 | – | – | – | –
Cc1ccc(NC(=O)CCc2cccc(NC3=CC(=O)N(C4CCC(=O)NC4=O)C3=O)c2)cc1Cl (centres unmarked) [Compound 53, N-(3-chloro-4-methylphenyl)-3-(3-((1-(2,6-dioxopiperidin-3-yl)-2,5-dioxo-2,5-dihydro-1H-pyrrol-3-yl)amino)phenyl)propanamide] | 0.110 | 0.077 | 0.078 | 1.708 | 1.574 | 1.455 | 0.232 | 0.982 | 0.931 | 0.030 | 0.022 | 0.029 | – | – | – | –
Cc1ccc(NC(=O)c2cccc(NC3=CC(=O)N(C4CCC(=O)NC4=O)C3=O)c2)cc1Cl (centres unmarked) [Compound 49, N-(3-chloro-4-methylphenyl)-3-((1-(2,6-dioxopiperidin-3-yl)-2,5-dioxo-2,5-dihydro-1H-pyrrol-3-yl)amino)benzamide] | 0.268 | 0.187 | 0.314 | 0.801 | 0.690 | 0.472 | 0.125 | 0.055 | 0.069 | 0.665 | 0.612 | 0.830 | most potent against IKZF1 | 1.9 nM | > 1000 nM | 7.2 nM
CC(NC(=O)Cc1cccc(C(F)(F)F)c1)c1cccc(NC2=CC(=O)N(C3CCC(=O)NC3=O)C2=O)c1 (centres unmarked) [Compound 142, N-(1-(3-((1-(2,6-dioxopiperidin-3-yl)-2,5-dioxo-2,5-dihydro-1H-pyrrol-3-yl)amino)phenyl)ethyl)-2-(3-(trifluoromethyl)phenyl)acetamide] | – | – | – | – | – | – | – | – | – | – | – | – | – | 16 nM | > 1000 nM | 16 nM
Cc1ccc(NC(=O)/C=C/c2cccc(NC3=CC(=O)N(C4CCC(=O)NC4=O)C3=O)c2)cc1Cl (centres unmarked) [Compound 57, (E)-N-(3-chloro-4-methylphenyl)-3-(3-((1-(2,6-dioxopiperidin-3-yl)-2,5-dioxo-2,5-dihydro-1H-pyrrol-3-yl)amino)phenyl)acrylamide] | 0.502 | 0.214 | 0.305 | 0.530 | 0.365 | 0.282 | 0.385 | 0.559 | 0.779 | 0.843 | 0.622 | 0.656 | – | – | – | –
Cc1ccc(NC(=O)COc2cccc(NC3=CC(=O)N(C4CCC(=O)NC4=O)C3=O)c2)cc1Cl (centres unmarked) [Compound 125, N-(3-chloro-4-methylphenyl)-2-(3-((1-(2,6-dioxopiperidin-3-yl)-2,5-dioxo-2,5-dihydro-1H-pyrrol-3-yl)amino)phenoxy)acetamide] | – | – | – | – | – | – | – | – | – | – | – | – | most potent against IKZF1 | 1.7 nM | > 1000 nM | 24 nM
O=C1CCC(N2C(=O)C=C(Nc3cccc(CCC(=O)Nc4cccc(C(F)(F)F)c4)c3)C2=O)C(=O)N1 (centres unmarked) [Compound 148, 3-(3-((1-(2,6-dioxopiperidin-3-yl)-2,5-dioxo-2,5-dihydro-1H-pyrrol-3-yl)amino)phenyl)-N-(3-(trifluoromethyl)phenyl)propanamide] | – | – | – | – | – | – | – | – | – | – | – | – | – | 3.2 nM | > 1000 nM | 13 nM
